Experiment [1] deals with Botrytis cinerea. As to the kind of experiment: Botrytis test (beans)/preventive.
Method: After the spray coating has dried on, 2 small pieces of agar covered with growth of Botrytis cinerea are placed on each leaf. The inoculated plants are placed in a darkened chamber at 20° C. and a relative atmospheric humidity of 100%. 2 days after the inoculation, the size of the lesions on the leaves is evaluated.
Experiment [2] deals with Puccinia triticina. As to the kind of experiment: Puccinia triticina-test (wheat)/preventive. In kind it is in vivo. To be noted: preventive, evaluated 8 days after inoculation; for pest or weed control at 40 ppm: application rate 40 ppm a.i.
In experiment [3] the test system is Sphaerotheca fuliginea. Nature of the experiment: Sphaerotheca test (cucumbers)/preventive. The settings on record: Podosphaera fuliginea, 168 h, read-out: Efficacy in % found; for pest or weed control at 0.25 ppm: 0.25 ppm a.i.; for pest or weed control at 0.5 ppm: 0.5 ppm a.i. In kind it is in vivo.
Experiment [4] has as its system Alternaria solani. Nature of the experiment: Alternaria test (tomatoes)/preventive. In kind it is in vivo.
Experiment [5] has as its system Fusarium nivale (var. majus). Nature of the experiment: Fusarium nivale (var. majus)-test (wheat)/preventive. To be noted: Microdochium nivale, in Triticum aestivum, 120 h; for pest or weed control at 10 ppm: 10 ppm a.i.; for pest or weed control at 40 ppm: 40 ppm a.i.
Method: After the spray coating has been dried, the plants are slightly injured by using a sandblast and afterwards they are sprayed with a conidia suspension of Fusarium nivale (var. majus).
The plants are placed in the greenhouse under a translucent incubation cabinet at a temperature of approximately 10° C. and a relative atmospheric humidity of approximately 100%.
The test is evaluated 5 days after the inoculation.
Experiment [6] deals with Venturia inaequalis. As to the kind of experiment: Venturia test (apples)/preventive. To be noted: for pest or weed control at 0.5 ppm: 0.5 ppm a.i.
Method: After the spray coating has dried on, the plants are inoculated with an aqueous conidia suspension of the causal agent of apple scab (Venturia inaequalis) and then remain for 1 day in an incubation cabinet at approximately 20° C. and a relative atmospheric humidity of 100%.
The plants are then placed in a greenhouse at approximately 21° C. and a relative atmospheric humidity of approximately 90%.
The test is evaluated 10 days after the inoculation.
Experiment [7] has as its system Pyrenophora teres. Nature of the experiment: Pyrenophora teres-test (barley)/preventive. In kind it is in vivo. To be noted: preventive, evaluated 8 days after inoculation.
For experiment [8], the system named is Phytophthora infestans. Nature of the experiment: whole plant or invertebrate. In kind it is in vivo. To be noted: Phytophthora infestans, 72 h, read-out: Efficacy in % found.
The subject of experiment [9] is Septoria tritici. As to the kind of experiment: Septoria tritici-test (wheat)/preventive. In kind it is in vivo. The settings on record: Zymoseptoria tritici, 504 h, preventive, evaluated 21 days after inoculation, read-out: Efficacy in % found; for pest or weed control at 10 ppm: application rate 10 ppm a.i.
Experiment [10] has as its system Fusarium graminearum. In kind it is in vivo.
In experiment [11] the test system is Blumeria graminis f.sp. hordei. As to the kind of experiment: Blumeria test (barley)/preventive. In kind it is in vivo. The settings on record: for pest or weed control at 10 ppm: 10 ppm a.i.
In experiment [12] the test system is Leptosphaeria nodorum. As to the kind of experiment: Leptosphaeria nodorum test (wheat)/preventive. In kind it is in vivo. The settings on record: for pest or weed control at 40 ppm: application rate 40 ppm.
[13] abbreviates: Puccinia triticina, 192 h, application rate 10 ppm a.i., read-out: Efficacy in % found.
The mark [14] stands for this setting: Puccinia triticina, 192 h, read-out: Efficacy in % found.
Setting [15] is: Alternaria solani, 72 h, Table 3b, read-out: Efficacy in % found.
[16] abbreviates: Venturia inaequalis, 240 h, read-out: Efficacy in % found, Table 2b, 0.25 ppm a.i.
Setting [17] is: Parastagonospora nodorum, 192 h, application rate 10 ppm, wheat, preventive, evaluated 8 days after inoculation, read-out: Efficacy in % found.
The mark [18] stands for this setting: Parastagonospora nodorum, 192 h, wheat, preventive, evaluated 8 days after inoculation, read-out: Efficacy in % found.
Where [19] appears, read: read-out: Efficacy in % found, Table 8e.

Consider 9 compounds from patent US12642271B2, “Active compound combinations comprising a (thio)carboxamide derivative and a fungicidal compound” (Bayer CropScience Aktiengesellschaft, priority 2011, dated 2026).

Where “and” joins values, the source holds several entries; their conditions need not be identical. Equal entries are not always repeated. Where two headings read alike, the source gives them in different places.

As to `Cn1nc(C(F)F)c(C(=O)N(Cc2cc(Cl)ccc2C(F)(F)F)C2CC2)c1F` [A15, N-[5-chloro-2-(trifluoromethyl)benzyl]-N-cyclopropyl-3-(difluoromethyl)-5-fluoro-1-methyl-1H-pyrazole-4-carboxamide], the “Efficacy in % found” value is 8% in experiment [1] (Table 5a, 2.5 ppm a.i.); 67% in experiment [7] (application rate 10 ppm a.i.); 0% in [10] (Table 7b, 10 ppm a.i.); 0% in [10] (Table 7b, 40 ppm a.i.). In addition, the pest or weed control at 10 ppm in experiment [2] (setting [13]) stood at 44%; in experiment [5] (read-out: Efficacy in % found, Table 8c) it was 63%; in experiment [9], 57%; in experiment [11] (Blumeria graminis, 168 h, Table 6b, read-out: Efficacy in % found) it was 13%. In addition, the pest or weed control at 40 ppm worked out at 89% in [2] (setting [14]); 70% in [11] (Blumeria graminis, 168 h, Table 6b, 40 ppm a.i., read-out: Efficacy in % found); 75% in experiment [11] (Blumeria graminis, 168 h, Table 6c, 40 ppm, read-out: Efficacy in % found). In addition, the pest or weed control at 0.25 ppm is 29% in experiment [3] (Table 4c); 59% in [4] (Alternaria solani, 72 h, Table 3b, 0.25 ppm, read-out: Efficacy in % found); 0% in experiment [6] (setting [16]); 0% in [8]. Further, the pest or weed control at 0.5 ppm came to 63% in experiment [4] (setting [15]); 0% in experiment [6] (Venturia inaequalis, 240 h, read-out: Efficacy in % found, Table 2a); 0% in [8]. Besides, the pest or weed control at 100 ppm in experiment [8] came to 25%.

Consider `Cn1nc(C(F)F)c(C(=O)N(Cc2c(Cl)cccc2C(F)(F)F)C2CC2)c1F` [A17, N-[2-chloro-6-(trifluoromethyl)benzyl]-N-cyclopropyl-3-(difluoromethyl)-5-fluoro-1-methyl-1H-pyrazole-4-carboxamide], for which the pest or weed control at 10 ppm turned out to be 29% in experiment [12] (Parastagonospora nodorum, 192 h, Table 9e, 10 ppm a.i., read-out: Efficacy in % found); 33% in [12] (setting [17]); 43% in experiment [5] (read-out: Efficacy in % found, Table 8d); 95% in [11] (Blumeria graminis, 168 h, Table 6a, read-out: Efficacy in % found). Also, the pest or weed control at 40 ppm in experiment [12] (setting [18]) and in experiment [2] (setting [14]) was 67% each time. In addition, the pest or weed control at 0.5 ppm was 74% in [3] (Table 4a); 71% in experiment [4] (setting [15]); 32% in experiment [4] (Alternaria solani, 72 h, Table 3c, read-out: Efficacy in % found); 0% in [8]. Also, the pest or weed control at 0.25 ppm in experiment [3] (Table 4b) came to 71%; in [6] (setting [16]), 8%; in experiment [8] it was 0%. Besides, the “Efficacy in % found” value in experiment [7] (application rate 10 ppm a.i.) was 86% and 89%; in [10] (Table 7a, 10 ppm a.i.), 50%. In addition, the pest or weed control at 100 ppm in experiment [8] is 30%.

With `CC(C1CC1)C(O)(Cn1cncn1)c1ccc(Cl)cc1` (stereo not shown) [B1.5, cyproconazole], the pest or weed control at 80 ppm in experiment [12] (Parastagonospora nodorum, 192 h, Table 9a, 80 ppm a.i., read-out: Efficacy in % found) is 29%. Besides, the pest or weed control at 20 ppm in experiment [2] (Puccinia triticina, 192 h, application rate 20 ppm a.i., read-out: Efficacy in % found) was 56%; in experiment [9] (application rate 20 ppm a.i.) it was 29%; in experiment [11] (Blumeria graminis, 168 h, Table 6d, 20 ppm, read-out: Efficacy in % found) it was 78%. In addition, the pest or weed control at 0.5 ppm in experiment [3] (Table 4c) was 30%. Moreover, the “Efficacy in % found” value in experiment [7] (application rate 20 ppm a.i.) was found to be 0%.

As to `CON=C(C(=O)OC)c1ccccc1CON=C(C)c1cccc(C(F)(F)F)c1` [B3.22, trifloxystrobin], the pest or weed control at 10 ppm was determined as 40% in experiment [12] (setting [17]) and 13% in experiment [9]. Moreover, the pest or weed control at 40 ppm in experiment [12] (setting [18]) is 57%. The pest or weed control at 1 ppm in experiment [3] (Table 4c, 1 ppm a.i.) is 21%. Besides, the “Efficacy in % found” value in experiment [10] (Table 7a, 10 ppm a.i.) came out at 0%; in [10] (Table 7b, 10 ppm a.i.), 25%.

Regarding pyrimethanil [B7.7], the “Efficacy in % found” value in experiment [1] (Table 5b, 10 ppm a.i.) came out at 24%; in experiment [2] (application rate 400 ppm a.i.), 11%; in experiment [4] (Table 3b, 25 ppm) it was 26%.

As to `CC(C)c1ccc(Cl)cc1CN(C(=O)c1c(C(F)F)nn(C)c1F)C1CC1` [A5, N-(5-chloro-2-isopropylbenzyl)-N-cyclopropyl-3-(difluoromethyl)-5-fluoro-1-methyl-1H-pyrazole-4-carboxamide], the “Efficacy in % found” value in [1] (Table 5b, 0.5 ppm a.i.) stood at 16%; in experiment [1] (Table 5b, 2 ppm a.i.), 72%. The pest or weed control at 10 ppm in [12] (setting [17]) amounted to 20%; in [2] (setting [13]) it was 44%; in [5] (setting [19]), 0%. Besides, the pest or weed control at 40 ppm in [12] (setting [18]) stood at 60%; in experiment [2] (setting [14]), 94%; in [5] (setting [19]) it was 0%; in experiment [5] (read-out: Efficacy in % found, Table 8f), 38%; in [9] (application rate 40 ppm a.i.) it was 93%; in [11] (Blumeria graminis, 168 h, Table 6f, 40 ppm a.i., read-out: Efficacy in % found), 25%. In addition, the pest or weed control at 0.5 ppm in [3] (Table 4d) came out at 0%; in [4] (Alternaria solani, 72 h, Table 3e, read-out: Efficacy in % found), 6%; in experiment [4] (Alternaria solani, 72 h, Table 3d, read-out: Efficacy in % found), 0%; in experiment [6] (Venturia inaequalis, 240 h, read-out: Efficacy in % found, Table 2e), 15%; in experiment [6] (Venturia inaequalis, 240 h, read-out: Efficacy in % found, Table 2d), 0%; in [8], 0%. Moreover, in experiment [6] (Venturia inaequalis, 240 h, read-out: Efficacy in % found, Table 2e, 2 ppm a.i.), the pest or weed control at 2 ppm worked out at 57%. The pest or weed control at 0.25 ppm in [6] (Venturia inaequalis, 240 h, read-out: Efficacy in % found, Table 2d, 0.25 ppm a.i.) stood at 0%.

For the compound `CC(C)C1C2CCC1c1c(NC(=O)c3cn(C)nc3C(F)F)cccc12` (stereo not drawn) [B2.11, isopyrazam (syn + anti)], the “Efficacy in % found” value in [12] (Table 9b, 10 ppm a.i.) is recorded as 0%; in [2] (application rate 10 ppm a.i.), 33%; in [6] (Table 2d, 0.25 ppm a.i.), 88%; in experiment [7] (application rate 10 ppm a.i.) it was 0%; in experiment [10] (Table 7b, 40 ppm a.i.) it was 0%.

For the compound fludioxonil [B13.3], the “Efficacy in % found” value was 53% in [1] (Table 5a, 2.5 ppm a.i.); 0% in experiment [1] (Table 5b, 0.5 ppm a.i.); 0% in experiment [2] (application rate 400 ppm a.i.); 0% in experiment [11] (Table 6e, 100 ppm a.i.); 13% in [11] (Table 6f, 400 ppm a.i.).

Consider `CC1(C(=O)Nc2ccc(O)c(Cl)c2Cl)CCCCC1` [B1.16, fenhexamid], for which the “Efficacy in % found” value turned out to be 51% in experiment [1] (Table 5a, 2.5 ppm a.i.) and 0% in [1] (Table 5b, 2 ppm a.i.). Further, the pest or weed control at 50 ppm in [4] (Alternaria solani, 72 h, Table 3b, 50 ppm, read-out: Efficacy in % found) came out at 22%.
